The text below walks through data of ChEMBL document CHEMBL1133798, “Potent and selective bicyclic lactam inhibitors of thrombin. Part 4: transition state inhibitors” (Bioorg Med Chem Lett, 2001).

For series [1], the species on record is Rattus norvegicus. As to the kind of experiment: Thrombin time was measured in rat arterial thrombosis model. The class given is functional.
The next series has as its target Serine protease 1 (Homo sapiens, UniProt P07477). As to the kind of experiment: In vitro activity against human alpha trypsin was determined.
The species entered for series [2] is Rattus norvegicus. In words: Mean occulation time was measured in rat arterial thrombosis model. The class given is functional.
The next series deals with Prothrombin (Homo sapiens, UniProt P00734). As to the kind of experiment: In vitro activity against human alpha thrombin was determined.
For series [3], the species on record is Rattus norvegicus. In words: Activated partial thromboplastin time was measured in rat arterial thrombosis model. The class given is functional.
Series [4] is described as follows: Oral bioavailability in rat (dose 30 mg/kg). The class given is ADME, organism-based. As to conditions: in vivo.

Sequence of Serine protease 1 (P07477 whole entry): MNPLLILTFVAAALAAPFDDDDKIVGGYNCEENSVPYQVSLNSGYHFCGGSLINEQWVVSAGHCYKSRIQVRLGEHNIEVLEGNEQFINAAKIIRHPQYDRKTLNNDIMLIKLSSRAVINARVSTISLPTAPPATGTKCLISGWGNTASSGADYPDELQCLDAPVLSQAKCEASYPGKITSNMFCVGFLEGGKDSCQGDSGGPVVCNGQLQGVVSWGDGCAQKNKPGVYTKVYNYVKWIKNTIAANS

`Cn1nnnc1C(=O)C(NC(=O)[C@@H]1CC[C@H]2CN(S(=O)(=O)Cc3ccccc3)CC(=O)N21)[C@H]1CC[C@H](N)CC1` (some centres undefined): the TT in the series listed under Rattus norvegicus [1] came out at 322 s. Besides, the Ki (as a rule, a dissociation constant, usually derived from enzyme kinetics or from competition with a known ligand) at Serine protease 1 worked out at 35000 nM; on Prothrombin it was 5 nM. For the same compound, in the series listed under Rattus norvegicus [2], the MOT was 46 min. In addition, the APTT in the series filed under Rattus norvegicus [3] is given as 46 s.
Turning to `N[C@H]1CC[C@H](C(NC(=O)[C@@H]2CC[C@H]3CN(S(=O)(=O)Cc4ccccc4)CC(=O)N32)C(=O)c2nc3ccccc3s2)CC1` (some centres undefined), the TT in the series filed under Rattus norvegicus [1] was 339 s. The bioavailability (usually dose-corrected exposure relative to a reference, in per cent) in series [4] stood at 0.6%. The values for the Ki on Serine protease 1 and at Prothrombin were 1400 nM and 0.72 nM, respectively. The compound also had an MOT in the series filed under Rattus norvegicus [2] greater than 60 min. Besides, in the series filed under Rattus norvegicus [3], the APTT turned out to be 25 s.
Regarding `N[C@H]1CC[C@H](C(NC(=O)[C@@H]2CC[C@H]3CN(S(=O)(=O)Cc4ccccc4)CC(=O)N32)C(=O)C(=O)O)CC1` (some centres undefined), in the series filed under Rattus norvegicus [1], the TT is 938 s. In series [4], this compound registered a bioavailability of 0.4%. Further, the figures for the Ki on Serine protease 1 and on Prothrombin were 2200 nM and 0.09 nM, respectively. Further, in the series listed under Rattus norvegicus [2], the MOT is greater than 60 min. The APTT in the series filed under Rattus norvegicus [3] was 54 s.
In the series filed under Rattus norvegicus [1], `N[C@H]1CC[C@H](C(NC(=O)[C@@H]2CC[C@H]3CN(S(=O)(=O)Cc4ccccc4)CC(=O)N32)C(=O)c2nccs2)CC1` (some centres undefined) returned a TT of 829 s. In addition, in series [4], the bioavailability is 1.8%. Besides, the inhibition constant (Ki) on Serine protease 1 is 8000 nM; at Prothrombin, 3.2 nM. Moreover, the MOT in the series filed under Rattus norvegicus [2] is greater than 60 min. The compound further yielded an APTT in the series filed under Rattus norvegicus [3] of 66 s.
Consider `CCCCOC(=O)C(=O)C(NC(=O)[C@@H]1CC[C@H]2CN(S(=O)(=O)Cc3ccccc3)CC(=O)N21)[C@H]1CC[C@H](N)CC1` (some centres undefined), for which, in the series listed under Rattus norvegicus [1], the TT amounted to 883 s. Moreover, the bioavailability in series [4] came to 0.7%. Further, the 50% inhibitory concentration (IC50) (as a rule, the concentration that gives 50% inhibition) was found to be 550 nM at Serine protease 1 and 0.1 nM against Prothrombin. The compound also registered an MOT in the series listed under Rattus norvegicus [2] of 47 min. Also, the APTT in the series filed under Rattus norvegicus [3] came to 53 s.
In the series filed under Rattus norvegicus [1], `Cc1nc(C(=O)C(NC(=O)[C@@H]2CC[C@H]3CN(S(=O)(=O)Cc4ccccc4)CC(=O)N32)[C@H]2CC[C@H](N)CC2)sc1C(=O)O` (some centres undefined) gave a TT of 99 s. In addition, in series [4], the bioavailability amounted to 0.4%. For the same compound, the figures for the Ki at Serine protease 1 and at Prothrombin were 65000 nM and 80 nM, respectively. The same compound returned an MOT in the series listed under Rattus norvegicus [2] of 16 min. Further, the APTT in the series listed under Rattus norvegicus [3] is reported as 20 s.
With `COC(=O)C(=O)C(NC(=O)[C@@H]1CC[C@H]2CN(S(=O)(=O)Cc3ccccc3)CC(=O)N21)[C@H]1CC[C@H](N)CC1` (some centres undefined), in the series listed under Rattus norvegicus [1], the TT stood at 999 s. This compound yielded a bioavailability in series [4] of 1.1%. Besides, in the series filed under Rattus norvegicus [2], the MOT is recorded as greater than 60 min. The compound also yielded a Ki at Prothrombin of 0.13 nM. The same compound gave an APTT in the series filed under Rattus norvegicus [3] of 46 s.
With `CNC(=O)C(=O)C(NC(=O)[C@@H]1CC[C@H]2CN(S(=O)(=O)Cc3ccccc3)CC(=O)N21)[C@H]1CC[C@H](N)CC1` (some centres undefined), the TT in the series listed under Rattus norvegicus [1] is on record as 999 s. The Ki at Serine protease 1 turned out to be 2400 nM; at Prothrombin it was 0.33 nM. For the same compound, the MOT in the series listed under Rattus norvegicus [2] worked out at 20 min. The APTT in the series filed under Rattus norvegicus [3] is listed as 47 s.
As to `N[C@H]1CC[C@H](C(NC(=O)[C@@H]2CC[C@H]3CN(S(=O)(=O)Cc4ccccc4)CC(=O)N32)C(=O)c2nnnn2CC(=O)O)CC1` (some centres undefined), at Serine protease 1, the Ki is greater than 400000 nM.
In turn, `CCSC(=O)C(=O)C(NC(=O)[C@@H]1CC[C@H]2CN(S(=O)(=O)Cc3ccccc3)CC(=O)N21)[C@H]1CC[C@H](N)CC1` (some centres undefined) showed a TT in the series listed under Rattus norvegicus [1] of 999 s. Also, the bioavailability in series [4] worked out at 0.3%. The results for the inhibition constant Ki at Serine protease 1 and on Prothrombin were 150 nM and 0.26 nM, respectively. Also, the MOT in the series listed under Rattus norvegicus [2] is 49 min. In the series listed under Rattus norvegicus [3], the APTT is recorded as 33 s.
Regarding `N[C@H]1CC[C@H](C(NC(=O)[C@@H]2CC[C@H]3CN(S(=O)(=O)Cc4ccccc4)CC(=O)N32)C(=O)C(=O)NCC(=O)O)CC1` (some centres undefined), the Ki at Serine protease 1 amounted to 29000 nM; at Prothrombin it was 2.14 nM.
